Data: the supplement of paper PMC10307832

Experiments:
Assay in all cases: relative viability (nuclei count vs DMSO), 5 days (fraction); higher = more cells survive
ABC-1 = tested on: ABC-1
Summary of the method: (§1)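 One day after seeding in 1536-well plates, lung cancer cell lines were dosed by pin tool. Dosing was either single-drug or a fixed anchor-drug dose plus five library-drug doses (not always all listed) in √10 steps. After 5 days, nuclei were stained in one fix-and-stain step and counted on 4× images, and relative viability is the nuclei count of treated wells over that of vehicle wells, given as the median of duplicate plates.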

NCI-H23 = tested on: NCI-H23
Summary of the method: as §1

LCLC-103H = tested on: LCLC-103H
Summary of the method: as §1

NCI-H1975 = tested on: NCI-H1975
Summary of the method: as §1

IA-LM = tested on: IA-LM
Summary of the method: as §1

EBC-1 = tested on: EBC-1
Summary of the method: as §1

NCI-H647 = tested on: NCI-H647
Summary of the method: as §1

HCC-78 = tested on: HCC-78
Summary of the method: as §1

RERF-LC-KJ = tested on: RERF-LC-KJ
Summary of the method: as §1

LOU-NH91 = tested on: LOU-NH91
Summary of the method: as §1

NCI-H1792 = tested on: NCI-H1792
Summary of the method: as §1

EPLC-272H = tested on: EPLC-272H
Summary of the method: as §1

NCI-H1651 = tested on: NCI-H1651
Summary of the method: as §1

201T = tested on: 201T
Summary of the method: as §1

NCI-H1437 = tested on: NCI-H1437
Summary of the method: as §1

NCI-H1915 = tested on: NCI-H1915
Summary of the method: as §1

UMC-11 = tested on: UMC-11
Summary of the method: as §1

EMC-BAC-2 = tested on: EMC-BAC-2
Summary of the method: as §1

SK-LU-1 = tested on: SK-LU-1
Summary of the method: as §1

NCI-H2405 = tested on: NCI-H2405
Summary of the method: as §1

NCI-H2023 = tested on: NCI-H2023
Summary of the method: as §1

NCI-H661 = tested on: NCI-H661
Summary of the method: as §1

CCCCCCCCCCCC1=C(O)C(=O)C=C(O)C1=O [Embelin] + C[C@@H](Oc1cc(-c2cnn(C3CCNCC3)c2)cnc1N)c1c(Cl)ccc(F)c1Cl [Crizotinib] (partner 1 µM)
relative viability (ABC-1; first compound 0.08 µM): 0.896
relative viability (ABC-1; first compound 0.8 µM): 1.26
relative viability (ABC-1; first compound 2.53 µM): 1.7
relative viability (ABC-1; first compound 8 µM): 1.21
relative viability (NCI-H23; first compound 0.08 µM): 0.554
relative viability (NCI-H23; first compound 0.8 µM): 0.56
relative viability (NCI-H23; first compound 2.53 µM): 0.55
relative viability (NCI-H23; first compound 8 µM): 0.705
relative viability (LCLC-103H; first compound 0.08 µM): 1.06
relative viability (LCLC-103H; first compound 0.8 µM): 1.01
relative viability (LCLC-103H; first compound 2.53 µM): 1.08
relative viability (LCLC-103H; first compound 8 µM): 0.959
relative viability (NCI-H1975; first compound 0.08 µM): 1.1
relative viability (NCI-H1975; first compound 0.8 µM): 0.999
relative viability (NCI-H1975; first compound 2.53 µM): 1
relative viability (NCI-H1975; first compound 8 µM): 1.04
relative viability (IA-LM; first compound 0.08 µM): 0.718
relative viability (IA-LM; first compound 0.8 µM): 0.85
relative viability (IA-LM; first compound 2.53 µM): 0.729
relative viability (IA-LM; first compound 8 µM): 0.743
relative viability (EBC-1; first compound 0.08 µM): 0.205
relative viability (EBC-1; first compound 0.8 µM): 0.229
relative viability (EBC-1; first compound 2.53 µM): 0.191
relative viability (EBC-1; first compound 8 µM): 0.19
relative viability (NCI-H647; first compound 0.08 µM): 1.44
relative viability (NCI-H647; first compound 0.8 µM): 1.08
relative viability (NCI-H647; first compound 2.53 µM): 1.48
relative viability (NCI-H647; first compound 8 µM): 1.17
relative viability (HCC-78; first compound 0.08 µM): 0.344
relative viability (HCC-78; first compound 0.8 µM): 0.373
relative viability (HCC-78; first compound 2.53 µM): 0.347
relative viability (HCC-78; first compound 8 µM): 0.321
relative viability (RERF-LC-KJ; first compound 0.08 µM): 0.883
relative viability (RERF-LC-KJ; first compound 0.8 µM): 0.912
relative viability (RERF-LC-KJ; first compound 2.53 µM): 0.906
relative viability (RERF-LC-KJ; first compound 8 µM): 0.937
relative viability (LOU-NH91; first compound 0.08 µM): 0.764
relative viability (LOU-NH91; first compound 0.8 µM): 0.751
relative viability (LOU-NH91; first compound 2.53 µM): 0.763
relative viability (LOU-NH91; first compound 8 µM): 0.741
relative viability (NCI-H1792; first compound 0.08 µM): 0.997
relative viability (NCI-H1792; first compound 0.8 µM): 0.974
relative viability (NCI-H1792; first compound 2.53 µM): 1.19
relative viability (NCI-H1792; first compound 8 µM): 0.964
relative viability (EPLC-272H; first compound 0.08 µM): 0.802
relative viability (EPLC-272H; first compound 0.8 µM): 1.08
relative viability (EPLC-272H; first compound 2.53 µM): 1.4
relative viability (EPLC-272H; first compound 8 µM): 0.765
relative viability (NCI-H1651; first compound 0.08 µM): 0.855
relative viability (NCI-H1651; first compound 0.8 µM): 0.843
relative viability (NCI-H1651; first compound 2.53 µM): 0.988
relative viability (NCI-H1651; first compound 8 µM): 0.837
relative viability (201T; first compound 0.08 µM): 1.02
relative viability (201T; first compound 0.8 µM): 1.07
relative viability (201T; first compound 2.53 µM): 1.04
relative viability (201T; first compound 8 µM): 1.06
relative viability (NCI-H1437; first compound 0.08 µM): 0.988
relative viability (NCI-H1437; first compound 0.8 µM): 0.898
relative viability (NCI-H1437; first compound 2.53 µM): 1.01
relative viability (NCI-H1437; first compound 8 µM): 0.452
relative viability (NCI-H1915; first compound 0.08 µM): 0.988
relative viability (NCI-H1915; first compound 0.8 µM): 1.03
relative viability (NCI-H1915; first compound 2.53 µM): 0.993
relative viability (NCI-H1915; first compound 8 µM): 0.97
relative viability (UMC-11; first compound 0.08 µM): 0.639
relative viability (UMC-11; first compound 0.8 µM): 0.618
relative viability (UMC-11; first compound 2.53 µM): 0.644
relative viability (UMC-11; first compound 8 µM): 0.572
relative viability (EMC-BAC-2; first compound 0.08 µM): 0.747
relative viability (EMC-BAC-2; first compound 0.8 µM): 0.831
relative viability (EMC-BAC-2; first compound 2.53 µM): 0.87
relative viability (EMC-BAC-2; first compound 8 µM): 0.764
relative viability (SK-LU-1; first compound 0.08 µM): 1.08
relative viability (SK-LU-1; first compound 0.8 µM): 1.06
relative viability (SK-LU-1; first compound 2.53 µM): 0.941
relative viability (SK-LU-1; first compound 8 µM): 0.922
relative viability (NCI-H2405; first compound 0.08 µM): 0.908
relative viability (NCI-H2405; first compound 0.8 µM): 0.976
relative viability (NCI-H2405; first compound 2.53 µM): 0.892
relative viability (NCI-H2405; first compound 8 µM): 0.955
relative viability (NCI-H2023; first compound 0.08 µM): 0.654
relative viability (NCI-H2023; first compound 0.8 µM): 0.638
relative viability (NCI-H2023; first compound 2.53 µM): 0.801
relative viability (NCI-H2023; first compound 8 µM): 0.609
relative viability (NCI-H661; first compound 0.08 µM): 1.09
relative viability (NCI-H661; first compound 0.8 µM): 1.09
relative viability (NCI-H661; first compound 2.53 µM): 0.846
relative viability (NCI-H661; first compound 8 µM): 0.997
